{"source": "patent US20070191333A1", "about": "“Antibacterial agents” (Warner Lambert Company LLC, priority 2003, published 2007)", "format_in_all_cases": "cell-based", "key": {"H. influenzae HI-3542": {"tested_on": "H. influenzae HI-3542", "assay": "Antibacterial microtitration MIC, H. influenzae HI-3542", "conditions": "strain HI-3542; for MIC: Haemophilus influenzae, HI3542, Gram Negative Bacteria, read-out: Minimum Inhibitory Concentrations H. influenzae HI-3542", "protocol": "(§1) Test A—Antibacterial Assays The compounds of the present invention were tested against an assortment of Gram-negative and Gram-positive organisms using standard microtitration techniques (Cohen et. al., Antimicrob., 1985; 28:766; Heifetz, et. al., Antimicrob., 1974; 6:124)."}, "M. catarrhalis BC-3531": {"tested_on": "M. catarrhalis BC-3531", "assay": "Antibacterial microtitration MIC, M. catarrhalis BC-3531", "conditions": "strain BC-3531; for MIC: Moraxella catarrhalis, BC3531, Gram Negative Bacteria, read-out: Minimum Inhibitory Concentrations M. catarrhalis BC-3531", "protocol": "as §1"}, "E. coli 2026": {"tested_on": "E. coli 2026", "assay": "Antibacterial microtitration MIC, E. coli 2026", "conditions": "strain 2026; for MIC: read-out: Minimum Inhibitory Concentrations E. coli 2026", "protocol": "as §1"}, "E. faecalis MGH-2": {"tested_on": "E. faecalis MGH-2", "assay": "Antibacterial microtitration MIC, E. faecalis MGH-2", "conditions": "strain MGH-2; for MIC: Enterococcus faecalis, MGH2, Gram Positive Bacteria, read-out: Minimum Inhibitory Concentrations E. faecalis MGH-2", "protocol": "as §1"}, "S. pneumo SV-1": {"tested_on": "S. pneumo SV-1", "assay": "Antibacterial microtitration MIC, S. pneumo SV-1", "conditions": "Gram Positive Bacteria, strain SV-1; for MIC: read-out: Minimum Inhibitory Concentrations S. pneumo SV-1", "protocol": "as §1"}, "S. aureus UC-76": {"tested_on": "S. aureus UC-76", "assay": "Antibacterial microtitration MIC, S. aureus UC-76", "conditions": "strain UC-76; for MIC: Staphylococcus aureus, UC76, Gram Positive Bacteria, read-out: Minimum Inhibitory Concentrations S. aureus UC-76", "protocol": "as §1"}, "S pyogenes C203": {"tested_on": "S pyogenes C203", "assay": "Antibacterial microtitration MIC, S pyogenes C203", "conditions": "Gram Positive Bacteria, strain C203; for MIC: read-out: Minimum Inhibitory Concentrations S pyogenes C203", "protocol": "as §1"}, "[1]": {"conditions": "Escherichia coli, 2026, Gram Negative Bacteria"}}, "note": "Like-named read-outs stand apart in the source and are kept apart here."}
{"compound": "Cc1c(N2CC[C@H]([C@H](N)CC#N)C2)c(F)cc2c(=O)n(N)c(=O)n(C3CC3)c12", "note": "(racemic) [drawing 389]", "values": [{"measurement": "MIC", "setting": "H. influenzae HI-3542", "value": 4, "unit": "µg/mL"}, {"measurement": "MIC", "setting": "M. catarrhalis BC-3531", "value": 16, "unit": "µg/mL"}, {"measurement": "MIC", "setting": "E. coli 2026; [1]", "value": 32, "unit": "µg/mL"}]}
{"compound": "Cc1c(N2C[C@H](CNCCC#N)[C@@H](F)C2)c(F)cc2c(=O)n(N)c(=O)n(C3CC3)c12", "note": "(racemic) [drawing 397]", "values": [{"measurement": "MIC", "setting": "H. influenzae HI-3542", "value": 8, "unit": "µg/mL"}, {"measurement": "MIC", "setting": "M. catarrhalis BC-3531", "value": 16, "unit": "µg/mL"}, {"measurement": "MIC", "setting": "E. coli 2026; Escherichia coli, Gram Negative Bacteria", "value": 32, "unit": "µg/mL"}]}
{"compound": "Cc1c(N2CC[C@H]([C@H](N)CC#N)C2)c(F)cc2c(=O)n(N)c(=O)n(C3CC3)c12", "note": "(racemic) [drawing 406]", "values": [{"measurement": "MIC", "setting": "E. faecalis MGH-2", "value": 4, "unit": "µg/mL"}, {"measurement": "MIC", "setting": "S. pneumo SV-1", "value": 0.5, "unit": "µg/mL"}, {"measurement": "MIC", "setting": "S. aureus UC-76", "value": 1, "unit": "µg/mL"}, {"measurement": "MIC", "setting": "S pyogenes C203", "value": 0.5, "unit": "µg/mL"}]}
{"compound": "Cc1c(N2C[C@H](CNCCC#N)[C@@H](F)C2)c(F)cc2c(=O)n(N)c(=O)n(C3CC3)c12", "note": "(racemic) [drawing 414]", "values": [{"measurement": "MIC", "setting": "E. faecalis MGH-2", "value": 4, "unit": "µg/mL"}, {"measurement": "MIC", "setting": "S. pneumo SV-1", "value": 1, "unit": "µg/mL"}, {"measurement": "MIC", "setting": "S. aureus UC-76", "value": 2, "unit": "µg/mL"}, {"measurement": "MIC", "setting": "S pyogenes C203", "value": 1, "unit": "µg/mL"}]}
{"compound": "Cc1c(N2C[C@@H](CNCCC#N)[C@H](C)C2)c(F)cc2c(=O)n(N)c(=O)n(C3CC3)c12", "note": "(single isomer, unassigned)", "values": [{"measurement": "MIC", "setting": "E. faecalis MGH-2", "value": 0.5, "unit": "µg/mL"}, {"measurement": "MIC", "setting": "S. pneumo SV-1", "value": 0.06, "unit": "µg/mL"}, {"measurement": "MIC", "setting": "S. aureus UC-76", "value": 0.25, "unit": "µg/mL"}, {"measurement": "MIC", "setting": "S pyogenes C203", "value": 0.06, "unit": "µg/mL"}]}
{"compound": "Cc1c(N2C[C@H](CNCCC#N)[C@@H](C)C2)c(F)cc2c(=O)n(N)c(=O)n(C3CC3)c12", "note": "(single isomer, unassigned)", "values": [{"measurement": "MIC", "setting": "E. faecalis MGH-2", "value": 0.5, "unit": "µg/mL"}, {"measurement": "MIC", "setting": "S. pneumo SV-1", "value": 0.125, "unit": "µg/mL"}, {"measurement": "MIC", "setting": "S. aureus UC-76", "value": 0.25, "unit": "µg/mL"}, {"measurement": "MIC", "setting": "S pyogenes C203", "value": 0.125, "unit": "µg/mL"}]}
{"compound": "Cc1c(N2CC[C@@H]([C@@H](N)CC#N)C2)c(F)cc2c(=O)n(N)c(=O)n(C3CC3)c12", "note": "(single isomer, unassigned) [drawing 390]", "values": [{"measurement": "MIC", "setting": "H. influenzae HI-3542", "value": 1, "unit": "µg/mL"}, {"measurement": "MIC", "setting": "M. catarrhalis BC-3531", "value": 2, "unit": "µg/mL"}, {"measurement": "MIC", "setting": "E. coli 2026; [1]", "value": 8, "unit": "µg/mL"}]}
{"compound": "Cc1c(N2CC[C@@H]([C@@H](N)CC#N)C2)c(F)cc2c(=O)[nH]c(=O)n(C3CC3)c12", "note": "(single isomer, unassigned) [drawing 391]", "values": [{"measurement": "MIC", "setting": "H. influenzae HI-3542", "value": 4, "unit": "µg/mL"}, {"measurement": "MIC", "setting": "M. catarrhalis BC-3531", "value": 4, "unit": "µg/mL"}, {"measurement": "Minimum Inhibitory Concentrations E. coli 2026", "setting": "E. coli 2026; Gram Negative Bacteria", "value": 32, "unit": "µg/mL"}]}
{"compound": "Cc1c(N2CC[C@@H]([C@@H](N)CC#N)C2)c(F)cc2c(=O)[nH]c(=O)n(C3CC3)c12", "note": "(single isomer, unassigned) [drawing 392]", "values": [{"measurement": "Minimum Inhibitory Concentrations H. influenzae HI-3542", "setting": "H. influenzae HI-3542; Gram Negative Bacteria", "value": 2, "unit": "µg/mL"}, {"measurement": "Minimum Inhibitory Concentrations M. catarrhalis BC-3531", "setting": "M. catarrhalis BC-3531; Gram Negative Bacteria", "value": 4, "unit": "µg/mL"}, {"measurement": "Minimum Inhibitory Concentrations E. coli 2026", "setting": "E. coli 2026; Gram Negative Bacteria", "value": 8, "unit": "µg/mL"}]}
{"compound": "Cc1c(N2CC[C@@H]([C@H](C)NCCC#N)C2)c(F)cc2c(=O)n(N)c(=O)n(C3CC3)c12", "note": "(single isomer, unassigned) [drawing 394]", "values": [{"measurement": "MIC", "setting": "H. influenzae HI-3542", "value": 0.5, "unit": "µg/mL"}, {"measurement": "MIC", "setting": "M. catarrhalis BC-3531", "value": 1, "unit": "µg/mL"}, {"measurement": "MIC", "setting": "E. coli 2026; [1]", "value": 4, "unit": "µg/mL"}]}
{"compound": "COc1c(N2CC[C@@H]([C@H](C)NCCC#N)C2)c(F)cc2c(=O)n(N)c(=O)n(C3CC3)c12", "note": "(single isomer, unassigned) [drawing 400]", "values": [{"measurement": "MIC", "setting": "H. influenzae HI-3542", "value": 16, "unit": "µg/mL"}, {"measurement": "MIC", "setting": "M. catarrhalis BC-3531", "value": 16, "unit": "µg/mL"}, {"measurement": "MIC", "setting": "E. coli 2026; [1]", "value": 64, "unit": "µg/mL"}]}
{"compound": "COc1c(N2CC[C@@H]([C@H](C)NCCC#N)C2)c(F)cc2c(=O)[nH]c(=O)n(C3CC3)c12", "note": "(single isomer, unassigned) [drawing 401]", "values": [{"measurement": "MIC", "setting": "H. influenzae HI-3542", "value": 64, "unit": "µg/mL"}, {"measurement": "MIC", "setting": "M. catarrhalis BC-3531", "value": 64, "unit": "µg/mL"}, {"measurement": "MIC", "setting": "E. coli 2026; [1]", "value": 64, "unit": "µg/mL"}]}
{"compound": "Cc1c(N2CC[C@@H]([C@@H](N)CC#N)C2)c(F)cc2c(=O)n(N)c(=O)n(C3CC3)c12", "note": "(single isomer, unassigned) [drawing 407]", "values": [{"measurement": "MIC", "setting": "E. faecalis MGH-2", "value": 0.25, "unit": "µg/mL"}, {"measurement": "MIC", "setting": "S. pneumo SV-1", "value": 0.06, "unit": "µg/mL"}, {"measurement": "MIC", "setting": "S. aureus UC-76", "value": 0.125, "unit": "µg/mL"}, {"measurement": "MIC", "setting": "S pyogenes C203", "value": 0.03, "unit": "µg/mL"}]}
{"compound": "Cc1c(N2CC[C@@H]([C@@H](N)CC#N)C2)c(F)cc2c(=O)[nH]c(=O)n(C3CC3)c12", "note": "(single isomer, unassigned) [drawing 408]", "values": [{"measurement": "MIC", "setting": "E. faecalis MGH-2", "value": 0.5, "unit": "µg/mL"}, {"measurement": "MIC", "setting": "S. pneumo SV-1", "value": 0.125, "unit": "µg/mL"}, {"measurement": "MIC", "setting": "S. aureus UC-76", "value": 0.25, "unit": "µg/mL"}, {"measurement": "MIC", "setting": "S pyogenes C203", "value": 0.125, "unit": "µg/mL"}]}
{"compound": "Cc1c(N2CC[C@@H]([C@@H](N)CC#N)C2)c(F)cc2c(=O)[nH]c(=O)n(C3CC3)c12", "note": "(single isomer, unassigned) [drawing 409]", "values": [{"measurement": "Minimum Inhibitory Concentrations E. faecalis MGH-2", "setting": "E. faecalis MGH-2; Gram Positive Bacteria", "value": 1, "unit": "µg/mL"}, {"measurement": "Minimum Inhibitory Concentrations S. pneumo SV-1", "setting": "S. pneumo SV-1", "value": 0.125, "unit": "µg/mL"}, {"measurement": "Minimum Inhibitory Concentrations S. aureus UC-76", "setting": "S. aureus UC-76; Gram Positive Bacteria", "value": 0.5, "unit": "µg/mL"}, {"measurement": "Minimum Inhibitory Concentrations S pyogenes C203", "setting": "S pyogenes C203", "value": 0.25, "unit": "µg/mL"}]}
{"compound": "Cc1c(N2CC[C@@H]([C@H](C)NCCC#N)C2)c(F)cc2c(=O)n(N)c(=O)n(C3CC3)c12", "note": "(single isomer, unassigned) [drawing 411]", "values": [{"measurement": "MIC", "setting": "E. faecalis MGH-2", "value": 0.125, "unit": "µg/mL"}, {"measurement": "MIC", "setting": "S. pneumo SV-1", "value": 0.015, "unit": "µg/mL"}, {"measurement": "MIC", "setting": "S. aureus UC-76", "value": 0.06, "unit": "µg/mL"}, {"measurement": "MIC", "setting": "S pyogenes C203", "value": 0.03, "unit": "µg/mL"}]}
{"compound": "COc1c(N2CC[C@@H]([C@H](C)NCCC#N)C2)c(F)cc2c(=O)n(N)c(=O)n(C3CC3)c12", "note": "(single isomer, unassigned) [drawing 417]", "values": [{"measurement": "MIC", "setting": "E. faecalis MGH-2", "value": 1, "unit": "µg/mL"}, {"measurement": "MIC", "setting": "S. pneumo SV-1", "value": 0.125, "unit": "µg/mL"}, {"measurement": "MIC", "setting": "S. aureus UC-76", "value": 0.25, "unit": "µg/mL"}, {"measurement": "MIC", "setting": "S pyogenes C203", "value": 0.125, "unit": "µg/mL"}]}
